From the supplement of paper PMC10307832 come the findings set out here.

Common to all, as to assay: relative viability (nuclei count vs DMSO), 5 days (fraction); higher = more cells survive
Compound in experiment [1]: C/C(=N\NC(=S)N1CCC1)/C2=CC=CC=N2 + CCNC(=O)c1noc(-c2cc(C(C)C)c(O)cc2O)c1-c1ccc(CN2CCOCC2)cc1 [Luminespib] (partner 0.01 µM)
The gist of the method: (§1)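 For relative viability, nuclei counts in treated wells were divided by those in vehicle wells. Lung cancer cell lines had been pin-tool dosed in 1536-well plates the day after seeding and cultured for 5 days, then fixed and stained in one step (final 0.05% Triton X-100, 1% formaldehyde, 1 ug/ml Hoechst) and imaged at 4×. Doses were one drug alone or a fixed anchor-drug dose plus five library-drug doses (not always all listed) in √10 steps, and values are duplicate-plate medians.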

Compound in experiment [2]: C/C(=N\NC(=S)N1CCC1)/C2=CC=CC=N2 + COc1cc2c(Oc3ccc(NC(=O)C4(C(=O)Nc5ccc(F)cc5)CC4)cc3F)ccnc2cc1OCCCN1CCOCC1 [Foretinib] (partner 0.25 µM)
A digest of the protocol: as §1

Compound in experiment [3]: C/C(=N\NC(=S)N1CCC1)/C2=CC=CC=N2 + Cc1nc(Nc2ncc(C(=O)Nc3c(C)cccc3Cl)s2)cc(N2CCN(CCO)CC2)n1 [Dasatinib] (partner 0.075 µM)
A digest of the protocol:
as §1

Compound in experiment [4]: C/C(=N\NC(=S)N1CCC1)/C2=CC=CC=N2 + Nc1ncn([C@H]2C[C@H](O)[C@@H](CO)O2)c(=O)n1 [Decitabine] (partner 2 µM)
The gist of the method: as §1

For the cell line PC-3 [JPC-3], the relative viability in experiment [1] (first compound 0.05 µM) stood at 0.354; in experiment [1] (first compound 0.1581 µM), 0.415; in experiment [1] (first compound 0.5 µM), 0.257; in experiment [1] (first compound 1.581 µM), 0.232; in experiment [1] (first compound 5 µM), 0.216; in experiment [2] (first compound 0.05 µM) it was 0.518. For the same cell line, the relative viability in experiment [2] (first compound 0.1581 µM) came to 0.525; in experiment [2] (first compound 0.5 µM) it was 0.349; in experiment [2] (first compound 1.581 µM) it was 0.259; in experiment [2] (first compound 5 µM) it was 0.242; in experiment [3] (first compound 0.05 µM), 0.252; in experiment [3] (first compound 0.1581 µM) it was 0.281. In addition, the relative viability is 0.238 in experiment [3] (first compound 0.5 µM); 0.235 in experiment [3] (first compound 1.581 µM); 0.188 in experiment [3] (first compound 5 µM); 0.534 in experiment [4] (first compound 0.05 µM); 0.526 in experiment [4] (first compound 0.1581 µM); 0.418 in experiment [4] (first compound 0.5 µM). For the same cell line, the relative viability in experiment [4] (first compound 1.581 µM) is 0.344; in experiment [4] (first compound 5 µM), 0.324.

As for PC-14, the relative viability in experiment [1] (first compound 0.05 µM) amounted to 0.104; in experiment [1] (first compound 0.1581 µM), 0.126; in experiment [1] (first compound 0.5 µM), 0.112; in experiment [1] (first compound 1.581 µM), 0.0879; in experiment [1] (first compound 5 µM) it was 0.095; in experiment [2] (first compound 0.05 µM) it was 0.141. Moreover, the relative viability in experiment [2] (first compound 0.1581 µM) was found to be 0.113; in experiment [2] (first compound 0.5 µM), 0.129; in experiment [2] (first compound 1.581 µM), 0.0971; in experiment [2] (first compound 5 µM) it was 0.0805; in experiment [3] (first compound 0.05 µM), 0.0371; in experiment [3] (first compound 0.1581 µM) it was 0.0372. The relative viability was determined as 0.0336 in experiment [3] (first compound 0.5 µM); 0.023 in experiment [3] (first compound 1.581 µM); 0.0224 in experiment [3] (first compound 5 µM); 0.0702 in experiment [4] (first compound 0.05 µM); 0.088 in experiment [4] (first compound 0.1581 µM); 0.0592 in experiment [4] (first compound 0.5 µM). For the same cell line, the relative viability in experiment [4] (first compound 1.581 µM) was determined as 0.0503; in experiment [4] (first compound 5 µM), 0.0468.

Turning to RERF-LC-KJ, the relative viability in experiment [1] (first compound 0.05 µM) is 0.343; in experiment [1] (first compound 0.1581 µM) it was 0.306; in experiment [1] (first compound 0.5 µM), 0.272; in experiment [1] (first compound 1.581 µM) it was 0.265; in experiment [1] (first compound 5 µM), 0.294; in experiment [2] (first compound 0.05 µM), 0.292. In addition, the relative viability in experiment [2] (first compound 0.1581 µM) stood at 0.261; in experiment [2] (first compound 0.5 µM) it was 0.297; in experiment [2] (first compound 1.581 µM) it was 0.28; in experiment [2] (first compound 5 µM), 0.259; in experiment [3] (first compound 0.05 µM) it was 0.258; in experiment [3] (first compound 0.1581 µM), 0.25. Also, the relative viability turned out to be 0.266 in experiment [3] (first compound 0.5 µM); 0.219 in experiment [3] (first compound 1.581 µM); 0.245 in experiment [3] (first compound 5 µM); 0.234 in experiment [4] (first compound 0.05 µM); 0.235 in experiment [4] (first compound 0.1581 µM); 0.215 in experiment [4] (first compound 0.5 µM). Moreover, the relative viability in experiment [4] (first compound 1.581 µM) was 0.283; in experiment [4] (first compound 5 µM), 0.247.

As to SK-LU-1, the relative viability in experiment [1] (first compound 0.05 µM) was found to be 0.154; in experiment [1] (first compound 0.1581 µM), 0.133; in experiment [1] (first compound 0.5 µM) it was 0.176; in experiment [1] (first compound 1.581 µM), 0.156; in experiment [1] (first compound 5 µM), 0.178; in experiment [2] (first compound 0.05 µM), 0.214. In addition, the relative viability in experiment [2] (first compound 0.1581 µM) came to 0.19; in experiment [2] (first compound 0.5 µM), 0.221; in experiment [2] (first compound 1.581 µM), 0.149; in experiment [2] (first compound 5 µM), 0.172; in experiment [3] (first compound 0.05 µM), 0.123; in experiment [3] (first compound 0.1581 µM) it was 0.139. The relative viability was 0.145 in experiment [3] (first compound 0.5 µM); 0.0978 in experiment [3] (first compound 1.581 µM); 0.114 in experiment [3] (first compound 5 µM); 0.274 in experiment [4] (first compound 0.05 µM); 0.327 in experiment [4] (first compound 0.1581 µM); 0.25 in experiment [4] (first compound 0.5 µM). Further, the relative viability was 0.246 in experiment [4] (first compound 1.581 µM) and 0.294 in experiment [4] (first compound 5 µM).

Take SK-MES-1: the relative viability in experiment [1] (first compound 0.05 µM) came out at 0.169; in experiment [1] (first compound 0.1581 µM) it was 0.155; in experiment [1] (first compound 0.5 µM), 0.175; in experiment [1] (first compound 1.581 µM) it was 0.152; in experiment [1] (first compound 5 µM), 0.189; in experiment [2] (first compound 0.05 µM), 0.201. Moreover, the relative viability is 0.257 in experiment [2] (first compound 0.1581 µM); 0.223 in experiment [2] (first compound 0.5 µM); 0.166 in experiment [2] (first compound 1.581 µM); 0.238 in experiment [2] (first compound 5 µM); 0.145 in experiment [3] (first compound 0.05 µM); 0.155 in experiment [3] (first compound 0.1581 µM). For the same cell line, the relative viability is 0.133 in experiment [3] (first compound 0.5 µM); 0.107 in experiment [3] (first compound 1.581 µM); 0.126 in experiment [3] (first compound 5 µM); 0.193 in experiment [4] (first compound 0.05 µM); 0.186 in experiment [4] (first compound 0.1581 µM); 0.171 in experiment [4] (first compound 0.5 µM). Further, the relative viability in experiment [4] (first compound 1.581 µM) turned out to be 0.142; in experiment [4] (first compound 5 µM), 0.19.

SW 1573: the relative viability in experiment [1] (first compound 0.05 µM) was determined as 0.0763; in experiment [1] (first compound 0.1581 µM) it was 0.116; in experiment [1] (first compound 0.5 µM) it was 0.104; in experiment [1] (first compound 1.581 µM), 0.0921; in experiment [1] (first compound 5 µM), 0.0745; in experiment [2] (first compound 0.05 µM), 0.146. The relative viability in experiment [2] (first compound 0.1581 µM) was 0.155; in experiment [2] (first compound 0.5 µM), 0.128; in experiment [2] (first compound 1.581 µM), 0.142; in experiment [2] (first compound 5 µM), 0.0856; in experiment [3] (first compound 0.05 µM), 0.0654; in experiment [3] (first compound 0.1581 µM) it was 0.0445. In addition, the relative viability was found to be 0.0863 in experiment [3] (first compound 0.5 µM); 0.0351 in experiment [3] (first compound 1.581 µM); 0.0432 in experiment [3] (first compound 5 µM); 0.0582 in experiment [4] (first compound 0.05 µM); 0.119 in experiment [4] (first compound 0.1581 µM); 0.111 in experiment [4] (first compound 0.5 µM). Also, the relative viability in experiment [4] (first compound 1.581 µM) stood at 0.0723; in experiment [4] (first compound 5 µM), 0.0647.

For UMC-11, the relative viability in experiment [1] (first compound 0.05 µM) turned out to be 0.207; in experiment [1] (first compound 0.1581 µM) it was 0.194; in experiment [1] (first compound 0.5 µM), 0.199; in experiment [1] (first compound 1.581 µM), 0.184; in experiment [1] (first compound 5 µM) it was 0.176; in experiment [2] (first compound 0.05 µM), 0.249. For the same cell line, the relative viability in experiment [2] (first compound 0.1581 µM) turned out to be 0.212; in experiment [2] (first compound 0.5 µM), 0.223; in experiment [2] (first compound 1.581 µM) it was 0.183; in experiment [2] (first compound 5 µM), 0.185; in experiment [3] (first compound 0.05 µM) it was 0.231; in experiment [3] (first compound 0.1581 µM), 0.186. The relative viability came to 0.153 in experiment [3] (first compound 0.5 µM); 0.138 in experiment [3] (first compound 1.581 µM); 0.146 in experiment [3] (first compound 5 µM); 0.446 in experiment [4] (first compound 0.05 µM); 0.2 in experiment [4] (first compound 0.1581 µM); 0.261 in experiment [4] (first compound 0.5 µM). Moreover, the relative viability in experiment [4] (first compound 1.581 µM) came to 0.273; in experiment [4] (first compound 5 µM), 0.2.
